# Literature values as cited in patent US20050043329A1, “Crystalline forms of valacyclovir hydrochloride” (priority 2002, published 2005).
# Experiments:
# [1] = after oral administration in healthy adults
# [2] = after oral administration
compound,measurement,setting,value
"CC(C)[C@H](N)C(=O)OCCOCn1cnc2c(=O)[nH]c(N)nc21 [valacyclovir, 1-valine, 2-[(2-amino-1,6-dihydro-6-oxo-9H-purin-9-yl)methoxy]ethyl ester]",conversion to acyclovir,[1],converted rapidly and virtually completely
same,absorption from the gastrointestinal tract,[2],rapidly absorbed
